{"source": "paper PMC9820118", "about": "“Betulin Acid Ester Derivatives Inhibit Cancer Cell Growth by Inducing Apoptosis through Caspase Cascade Activation: A Comprehensive In Vitro and In Silico Study” (International Journal of Molecular Sciences, 2022)", "key": {"[1]": {"test_system": "MV4-11 cells", "assay": "Cell cycle analysis, PI staining flow cytometry, MV4-11", "format": "cell-based, human", "settings": "about IC50, 24 and 72 h", "experimental": "(§1) The effects of the selected derivatives on the cell cycle were analyzed by flow cytometry using PI staining.\n(§2) The MV4-11, A549 and PC-3 cells were seeded on 24-well plates (Sarstedt, Germany) for a final volume of 1.5 mL. […] After incubation, the cells were collected and 1 × 10^6 of cells were washed twice in cold PBS and fixed for 24 h in 70% ethanol at −20 °C, the cells were washed twice in PBS and incubated with RNAse (8 μg/mL, Fermentas, Germany) at 37 °C for 1 h. The cells were stained for 30 min. with propidium iodide (50 μg/mL, Sigma Aldrich, Germany) at 4 °C and the cellular DNA content was analyzed by flow cytometry using BD LSRFortessa cytometer (BD Bioscience, San Jose, CA, USA). Compounds at each concentration were tested at least three times independently. The obtained results were analyzed using Flowing software 2.5.1 (Cell Imaging Core, Turku Centre for Biotechnology, University of Turku and Åbo Akademi University, Turku, Finland)."}, "[2]": {"test_system": "PC-3 cells", "assay": "Induction of apoptosis, Annexin V/PI staining, PC-3", "format": "cell-based, human", "settings": "about 1.5 × IC50, 72 h", "text": "(§3) Apoptosis is one of a cell’s natural mechanisms for programmed cell death. It plays a crucial role in homeostasis by eliminating the unwanted or unnecessary cells. One of the most important functions of apoptosis is prevention of cancer. However, cancer cells often lose the ability to enter the path of apoptosis, which allows them to survive longer and grow in an uncontrolled manner. Regardless of that, apoptosis still remains the most important molecular mechanism to combat cancer cells; therefore, research is conducted to obtain agents with the ability to selectively induce apoptosis in cancer cell lines.\n(§4) The MV4-11, A549 and PC-3 cells were seeded on 24-well plates (Sarstedt, Germany) for a final volume of 1.5 mL. […] After incubation, the cells were collected and 2 × 10^5 of cells were washed twice with PBS. […] Results were analyzed using Flowing software 2.5.1. […]"}, "[3]": {"test_system": "MCF-7 cell line", "assay": "Antiproliferative activity, SRB assay, MCF-7 breast carcinoma cells", "method": "(§7) The in vitro antiproliferative activity tests have been conducted against four human cancer cell lines: MV4-11 biphenotypic B myelomonocytic leukemia cell line, A549 lung carcinoma cell line, MCF-7 breast carcinoma cell line, PC-3 prostate carcinoma cell line and one normal BALB/3T3 mouse fibroblast cell line. […] All tested compounds were dissolved in DMSO and diluted with a culture medium to a desired concentration. […] Cell viability, after 72 h incubation of the cells with tested compounds, was determined using tetrazolinum dye MTT (for MV4-11 cells) or sulforhodamine B (SRB test, for MCF-7, A549, PC-3, BALB/3T3 cells) colorimetric assays.\n(§8) Human biphenotypic B myelomonocytic leukemia MV4-11, murine normal fibroblast BALB/3T3 cells were obtained from the American Type Culture Collection (USA); and human lung carcinoma A549, human breast cancer MCF-7 and human prostate adenocarcinoma PC-3 were obtained from the European Collection of Authenticated Cell Cultures (UK).\n(§9) MV4-11 and PC-3 cells were cultured in RPMI 1640 medium (HIIET PAS, Poland) with 1.0 mM sodium pyruvate (only MV4-11) and 10% fetal bovine serum (FBS) (all from Merck, Darmstadt, Germany). A549 cells were cultured in RPMI 1640 + Opti-MEM (1:1) ((HIIET PAS, Poland and Gibco, UK) supplemented with 5% fetal bovine serum (Merck, Darmstadt, Germany). The MCF-7 cells were cultured in Eagle medium (HIIET PAS, Poland) supplemented with 8 mg/mL of insulin and 1% of MEM NON-Essential amino acid (all Merck, Darmstadt, Germany). Normal fibroblasts BALB/3T3 cells were cultured in DMEM medium (Gibco, UK) supplemented with 10% fetal bovine serum and 1.0 mM sodium pyruvate (all from Merck, Darmstadt, Germany). All culture media were supplemented with 2 mM L-glutamine (Merck, Darmstadt, Germany), 100 units/ml penicillin, (Polfa Tarchomin S.A., Poland) and 100 µg/mL streptomycin (Merck, Darmstadt, Germany). All cell lines were grown at 37 °C in a 5% CO2 humidified atmosphere.\n(§10) The solutions of the tested compounds were prepared by dissolving the substances in DMSO to the desired concentration (25 mM). Then, the tested compounds were diluted in a culture medium to reach the final concentrations. Before addition of the tested compounds (24 h prior), the cells were plated in 96-well plates (Sarstedt, Germany) at a density of 1 × 10^4, 0.75 × 10^4 (MCF-7) or 0.5 × 10^4 (A549) cells per well. The assay was performed after 72 h of exposure to 100, 10, 1 and 0.1 µM concentration of the tested agents. […] The SRB method determined the amount of cellular proteins. The concentration of the colorimetric probe (formazan in MTT or sulforhodamine B in SRB method) was determined by an optical density measurement using a standard microplate reader for 96-well plates. After optical density measurement, using the data of the mean absorbances of control cells (AbCC), the absorbances of cells treated by the tested compound (AbTr) (for each concentration separately) and the absorbance of the cultured medium (AbCM) the % of cell proliferation inhibition was calculated according to the following formula: % inh. cells proliferation=100−AbTr−AbCM/AbCC−AbCM×100\n(§11) From the obtained proliferation inhibition values, effect-concentration curves of the compound used were plotted. […] IC50 values were calculated for each experiment separately using the Prolab-3 system based on Cheburator 0.4 software [36] and mean values (±SD) are presented. Each compound in each concentration was tested in triplicate in a single experiment, which was repeated 3–5 times."}, "[4]": {"test_system": "caspase-3/7", "assay": "Caspase-3/7 activity (AC-DEVD-AMC substrate) in PC-3 cells", "format": "cell-based, human", "set-up": "key to Caspase 3/7 Activity, PC-3: +: plus mark represents statistically important elevated activity of caspase 3/7 compared to control", "settings": "+/− summary vs control", "text": "(§5) Caspase-3 and caspase-7 are cysteine-aspartic acid proteases that can directly execute apoptosis […] sequential activation of caspase-8 or caspase-9. Activation of these enzymes leads to apoptotic cell death; thus, measuring their activity is a good method to determine the pro-apoptotic potential of tested compounds. One of the mechanisms of betulin’s antiproliferative activity is activation of these enzymes; therefore, to further examine the mechanism of action of tested derivatives, we decided to determine their levels.\n(§6) The MV4-11, A549 and PC-3 cells were seeded on 48-well plates for a final volume of 1 mL. […] After incubation, the cells were collected and centrifuged (5 min., 4 °C, 250× g). Cells were suspended in 50 µL of ice-cold lysis buffer (50 mM HEPES, 10% (w/v) sucrose, 150 mM NaCl, 2 mM EDTA and 1% (v/v) Triton X-100, pH 7.3, HIIET, Poland) and incubated 30 min. at […]. After the incubation, 40 µL of each sample was transferred to a white, 96-well plate (Corning, CA, USA) containing 160 µL of the reaction buffer (20 mM HEPES, 10 % sucrose, 100 mM NaCl, 1 mM EDTA, 10 mM DTT, 0.02 % Trition X-100, pH 7.3) (HIIET, Wroclaw, Poland) with 9 µM AC-DEVD-AMC (Cayman Chemical) fluorogenic substrate (λex = 360 nm, λem = 460 nm). The fluorescence increase correlated with the caspase-3/7 level was continuously recorded at 37 °C for 120 min using a Biotek Synergy H4 (Biokom, Warsaw, Poland). Compounds were tested in duplicates in a single experiment and each experiment was repeated at least three times independently. Results were normalized to the number of cells in each well and are reported as mean relative caspase-3/7 activity compared to the untreated control sample ± SD."}, "[5]": {"assay": "Experimental lipophilicity by RP-TLC", "method": "The retention mechanism in the RP-TLC method is based on the partition of substances between two phases. Silica gel (RP-18 F254S plates) was used as the hydrophobic stationary phase. In contrast, the hydrophilic mobile phase was a binary mixture of acetone and an aqueous solution of TRIS buffer.\nChromatographic analysis by RP-TLC was performed an aluminum backed silica gel RP-18 F254S\nphenylanthracene] and tested betulin derivatives were dissolved in chloroform to obtain a\nconcentration of 2 mg/mL. The prepared solutions were spotted on the plates in the amount of 2 μL.\nthe next step, the chromatographic chambers were saturated 30 min of the appropriate mobile phases\nconsisting of a mixture of acetone (Merck, Darmstadt, Germany) and aqueous solution of buffer Tris\n[(tris-hydroxymethyl)aminomethane] (Fluka, Loughborough, 0.2 M, pH 7.4). The amount of acetone in\nthe mobile phase were in the range 60-90% in 5% increments. The chromatograms were developed for\neach compound in triplicate at room temperature. The spots of betulin derivatives were visualized by\nspraying the plates with the mixture of ethanol and concentrated sulfuric acid (10:1, v/v) and heating\nThe retardation factor (Rf) were calculated according to the equation below:\n(a-the distance from the start line to the spot center, b-the distance from the start line to the mobile\nThe RM values were calculated by the Bate-Smith and Westall equation:\nThe RM0 parameters were obtained by extrapolating on the acetone content to zero, according to the\nSoczewiński-Wachtmeister equation:\n(C-the percentage concentration of acetone in the mobile phase, b-the slope of the regression plot).\nThe calibration curve was determined using eight reference compounds.\ncompounds were determined under the same conditions as for betulin derivatives (Table S1)."}, "[6]": {"test_system": "MV4-11 cells", "assay": "Antiproliferative activity, MTT assay, MV4-11 leukemia cells", "format": "cell-based, human", "method": "as §7, §8, §9, §10, §11"}, "[7]": {"test_system": "A549 cell line", "assay": "Antiproliferative activity, SRB assay, A549 lung carcinoma cells", "method": "as §7, §8, §9, §10, §11"}, "[8]": {"test_system": "A549 cells", "assay": "Cell cycle analysis, PI staining flow cytometry, A549", "format": "cell-based, human", "experimental": "as §1, §2"}, "[9]": {"test_system": "A549 cells", "assay": "Induction of apoptosis, Annexin V/PI staining, A549", "format": "cell-based, human", "settings": "about 1.5 × IC50, 24 h", "text": "as §3, §4"}, "[10]": {"test_system": "caspase-3/7", "assay": "Caspase-3/7 activity (AC-DEVD-AMC substrate) in A549 cells", "format": "cell-based, human", "set-up": "key: +: plus mark represents statistically important elevated activity of caspase 3/7 compared to control", "text": "as §5, §6"}, "[11]": {"test_system": "PC-3 cell line", "assay": "Antiproliferative activity, SRB assay, PC-3 prostate carcinoma cells", "method": "as §7, §8, §9, §10, §11"}, "[12]": {"assay": "Cytotoxicity, SRB assay, normal BALB/3T3 fibroblasts", "settings": "mouse, BALB/3T3 normal fibroblast cells", "method": "as §7, §8, §9, §10, §11"}}, "note": "“Also recorded” adds a separate entry of the source."}
{"smiles": "C=C(C)[C@@H]1CC[C@]2(COC(=O)CCC(=O)O)CC[C@]3(C)C(CCC4[C@@]5(C)CC[C@H](O)C(C)(C)C5CC[C@]43C)C12", "note": "(stereo partly shown) [compound 2]", "values": [{"measurement": "Influence on cell cycle, MV4-11", "setting": "[1]", "value": "statistically significant increase in the number of cells in the G0/G1 phase"}, {"measurement": "Induction of apoptosis (AnV/PI), PC-3, 72 h", "setting": "[2]", "value": "shifting the ratio of the living cell population towards apoptotic and necrotic ones"}, {"measurement": "IC50", "setting": "[3]; Homo sapiens, MCF7, 72 h, read-out: Cytotoxicity IC50 against MCF-7 cell line", "value": 53.6, "unit": "µM"}, {"measurement": "Calculated Selectivity Index SI, MCF-7", "setting": "[3]; IC50 BALB/3T3 / IC50 MCF-7", "value": 1.0}, {"measurement": "Caspase 3/7 Activity, PC-3", "setting": "[4]", "value": "+"}, {"measurement": "RM0", "setting": "[5]; RP-TLC, RP-18 F254S, acetone / Tris buffer pH 7.4, extrapolated to zero acetone", "value": 5.910}, {"measurement": "log PTLC", "setting": "[5]; from RM0 by calibration curve with eight reference compounds", "value": 8.191}, {"measurement": "IC50", "setting": "[6]; Homo sapiens, MV4-11, 72 h, 72 h incubation, MTT, read-out: Growth inhibition IC50, leukemia cell line MV4-11", "value": 23.2, "unit": "µM"}, {"measurement": "Calculated Selectivity Index SI, MV4-11", "setting": "[6]; IC50 BALB/3T3 / IC50 MV4-11", "value": 2.3}, {"measurement": "IC50", "setting": "[7]; Homo sapiens, A549, 72 h, read-out: Cytotoxicity IC50 against A549 cell line", "value": 35.3, "unit": "µM"}, {"measurement": "Calculated Selectivity Index SI, A549", "setting": "[7]; IC50 BALB/3T3 / IC50 A549", "value": 1.5}, {"measurement": "Influence on cell cycle, A549, 24 h", "setting": "[8]; about IC50, 24 h", "value": "significantly induced cell cycle arrest in the G0/G1 phase; also recorded: reduced the number of cells in the S phase with an increased number of dead cells"}, {"measurement": "Influence on cell cycle, A549, 72 h", "setting": "[8]; about IC50, 72 h", "value": "greater percentage of dead cells with a decrease in G2/M and G0/G1 phases"}, {"measurement": "Induction of apoptosis (AnV/PI), A549, 24 h", "setting": "[9]", "value": "significantly increased levels of early-apoptotic and apoptotic cells"}, {"measurement": "caspase 3/7 activity, A549", "setting": "[10]; 1.5 × IC50, 24 h, several-fold lower at 72 h", "value": "hugely elevated caspase 3/7 activity"}, {"measurement": "caspase 3/7 activity, A549", "setting": "[10]; +/− summary vs control", "value": "+"}, {"measurement": "IC50", "setting": "[11]; Homo sapiens, PC-3, 72 h, read-out: Cytotoxicity IC50 against PC-3 cell line", "value": 68.5, "unit": "µM"}, {"measurement": "Calculated Selectivity Index SI, PC-3", "setting": "[11]; IC50 BALB/3T3 / IC50 PC-3", "value": 0.8}, {"measurement": "IC50 at 72 h", "setting": "[12]", "value": 53.4, "unit": "µM"}]}
